Here are results for 61 compounds from patent US20170037028A1 (BAYER PHARMA AKTIENGESELLSCHAFT, priority 2013, published 2017).

Usually IC50 stands for the midpoint of a concentration-inhibition curve.

This experiment has as its target T1, GLUT1 (Homo sapiens, UniProt P11166).
T1 sequence (P11166 1-492): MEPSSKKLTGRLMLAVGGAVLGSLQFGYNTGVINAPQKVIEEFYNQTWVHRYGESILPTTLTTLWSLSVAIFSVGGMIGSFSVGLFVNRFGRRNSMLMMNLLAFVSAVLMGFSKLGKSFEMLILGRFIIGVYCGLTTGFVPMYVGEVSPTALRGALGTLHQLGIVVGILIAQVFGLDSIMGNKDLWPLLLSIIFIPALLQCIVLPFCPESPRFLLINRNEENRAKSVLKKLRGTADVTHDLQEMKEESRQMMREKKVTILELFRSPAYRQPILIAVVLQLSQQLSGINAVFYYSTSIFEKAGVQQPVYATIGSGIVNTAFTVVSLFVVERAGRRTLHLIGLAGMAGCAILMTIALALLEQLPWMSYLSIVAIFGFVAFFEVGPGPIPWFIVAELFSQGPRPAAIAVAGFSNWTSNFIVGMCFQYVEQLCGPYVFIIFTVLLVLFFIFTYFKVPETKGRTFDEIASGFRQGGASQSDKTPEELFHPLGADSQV
Put plainly: Indirect measurement of GLUT1 activity by quantification of intracellular ATP levels (glucose induced ATP increase). The experiment is classed as cell-based. Details: endogenous in cells; host or cells: DLD1 or CHO-K1. Conditions: read-out: IC50 regarding glucose induced ATP increase (GLUT1 inhibition). A digest of the protocol:
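DLD1 or CHO-K1 cells were starved overnight in glucose-free medium with 1% FCS, then combined with an oxidative phosphorylation inhibitor. GLUT1 activity was read as glucose-induced ATP increase, GLUT2 as fructose-induced. Intracellular ATP was quantified by CellTiter-Glo luminescence.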
For the compound `COc1ccc(CNC(=O)c2ccc(Cn3nc(C)c(NC(=O)c4cc(C(F)(F)F)nc5ccc(Br)cc45)c3C)cc2)cc1` [Example 1229], the IC50 was determined as 999 nM. In the case of `Cc1nn(Cc2ccc(C(=O)NC(CO)CO)cn2)c(C)c1NC(=O)c1cc(C(F)(F)F)nc2ccc(Br)cc12` [Example 1230] it was 1000 nM; in that of `CNC(=O)c1nn(Cc2ccc(F)cc2)c(C)c1NC(=O)c1cc(C(N)=O)nc2ccccc12` [Example 1231], 1040 nM; in that of `COc1ccccc1Cn1nc(C)c(NC(=O)c2cc(C)nc3ccc(C)cc23)c1C` [Example 1232], 1050 nM.

Consider `Cc1cc(C)n(CCn2nc(C)c(NC(=O)c3cc(C(F)(F)F)nc4ccc(Br)cc34)c2C)n1` [Example 1233], for which the IC50 turned out to be 1110 nM.

With `Cc1nn(Cc2ccc(C(=O)N3CCOCC3)cn2)c(C)c1NC(=O)c1cc(C(F)(F)F)nc2ccc(Br)cc12` [Example 1234], the IC50 is 1180 nM.

With `Cc1c(NC(=O)c2cc(C(F)(F)F)nc3ccc(Br)cc23)c(C(=O)NCCO)nn1Cc1ccc(F)cc1` [Example 1235], the IC50 came out at 1280 nM.

For `Cc1ccc2nc(C)cc(C(=O)Nc3c(C)nn(Cc4cccc(F)c4)c3C)c2c1` [Example 1236], the IC50 was found to be 1290 nM. Regarding `Cc1cc(C(=O)Nc2c(C)nn(Cc3ccc(F)cc3)c2C)c2cc(C#N)ccc2n1` [Example 1237], the IC50 was found to be 1320 nM. With `Cc1nn(Cc2cc(F)ccc2F)c(C)c1NC(=O)c1cc(C(F)(F)F)nc2ccc(Br)cc12` [Example 1238] the figure was 1370 nM. With `Cc1nn(Cc2ccc(C(=O)NCC3(CO)COC3)cn2)c(C)c1NC(=O)c1cc(C(F)(F)F)nc2ccc(Br)cc12` [Example 1239] the figure was 1470 nM. Regarding `Cc1nn(Cc2ccc(CC(=O)NCCN3CCOCC3)cc2)c(C)c1NC(=O)c1cc(C(F)(F)F)nc2ccc(Br)cc12` [Example 1240], the IC50 was found to be 1500 nM. With `Cc1nn(CC2CCNCC2)c(C)c1NC(=O)c1cc(C(N)=O)nc2ccccc12` [Example 1241] the figure was 1530 nM. For the compound `Cc1nn(Cc2ccc(F)cc2)c(C)c1NC(=O)c1cc(C(F)(F)F)nc2ccc(NC(=O)C(N)=O)cc12` [Example 1242], the IC50 worked out at 1560 nM. With `Cc1nn(Cc2ccc(C(F)(F)F)cc2)c(C)c1NC(=O)c1cc(C(F)(F)F)nc2c(Cl)cc(Cl)cc12` [Example 1243] the figure was 1590 nM; with `Cc1nn(Cc2cc(F)cc(F)c2)c(C)c1NC(=O)c1cc(C(F)(F)F)nc2c(Cl)cc(Cl)cc12` [Example 1244], 1590 nM. For the compound `COc1cc(C(=O)Nc2c(C)nn(Cc3ccc(F)cc3)c2C(=O)N(C)C)c2ccccc2n1` [Example 1245], the IC50 amounted to 1600 nM.

As for `Cc1nn(Cc2ccc(C(=O)NCCO)cn2)c(C)c1NC(=O)c1cc(C(N)=O)nc2ccc(F)cc12` [Example 1246], the IC50 was found to be 1660 nM. With `CNC(=O)N1CCC(Cn2nc(C)c(NC(=O)c3cc(C(N)=O)nc4ccccc34)c2C)CC1` [Example 1247] the figure was 1670 nM; with `COc1cc(C(=O)Nc2c(C)nn(Cc3ncccc3C)c2C)c2ccccc2n1` [Example 1248], 1670 nM.

As for `Cc1nn(Cc2ccc(F)cc2)c(C)c1NC(=O)c1c2c(nc3ccccc13)CCC2` [Example 1249], the IC50 was 1670 nM. In the case of `Cc1nn(Cc2ccc(F)cc2)c(C(=O)N(C)C)c1NC(=O)c1cc(C(N)=O)nc2ccccc12` [Example 1250] it was 1670 nM; in that of `Cc1nn(Cc2ccc(C(=O)NCC3CCCCC3)cc2)c(C)c1NC(=O)c1cc(C(F)(F)F)nc2ccc(Br)cc12` [Example 1251], 1870 nM. With `Cc1cnc2ccccc2c1C(=O)Nc1c(C)nn(Cc2ccc(F)cc2)c1C` [Example 1252] the figure was 1870 nM; with `CNC(=O)c1nn(Cc2ccc(F)cc2)c(C)c1NC(=O)c1cc(OC)nc2ccccc12` [Example 1253], 1970 nM. With `Cc1nn(Cc2ccc(CC(=O)NCCN(C)C)cc2)c(C)c1NC(=O)c1cc(C(F)(F)F)nc2ccc(Br)cc12` [Example 1254] the figure was 1980 nM; with `CCOC(=O)c1c(NC(=O)c2cc(C(F)(F)F)nc3ccc(Br)cc23)c(C)nn1Cc1ccc(F)cc1` [Example 1255], 2010 nM; with `Cc1nn(Cc2cc(F)cc(F)c2)c(C)c1NC(=O)c1cc(C(F)(F)F)nc2ccc(Br)cc12` [Example 1256], 2040 nM. Turning to `Cc1nn(Cc2ccc(F)cc2)c(C)c1NC(=O)c1cc(C(F)(F)F)nc2ccc(NS(C)(=O)=O)cc12` [Example 1257], the IC50 worked out at 2050 nM. With `CNC(=O)c1c(NC(=O)c2cc(C(N)=O)nc3ccccc23)c(C)nn1Cc1ccc(F)cc1` [Example 1258] the figure was 2060 nM. With `Cc1c(NC(=O)c2cc(C(F)(F)F)nc3ccc(Br)cc23)c(C(=O)N(C)C)nn1Cc1ccc(F)cc1` [Example 1259] the figure was 2100 nM; with `Cc1nn(Cc2ccc(F)cc2)c(C)c1NC(=O)c1cc(O)nc2ccccc12` [Example 1260], 2170 nM; with `Cc1ccc2nc(C)cc(C(=O)Nc3c(C)nn(Cc4ccccn4)c3C)c2c1` [Example 1261], 2290 nM. With `Cc1nn(CC2CCOCC2)c(C)c1NC(=O)c1cc(C(F)(F)F)nc2cc(F)c(F)cc12` [Example 1262] the figure was 2290 nM.

Take `Cc1nn(Cc2ccc(C(=O)NCC(O)CO)cn2)c(C)c1NC(=O)c1cc(C(F)(F)F)nc2ccc(Br)cc12` (stereo not shown) [Example 1263]: the IC50 was found to be 2320 nM. In the case of `Cc1nc2ccccc2c(C(=O)Nc2c(C)nn(Cc3ccc(F)cc3)c2C)c1C#N` [Example 1264] it was 2380 nM; in that of `COc1cc(C(=O)Nc2c(C(=O)N(C)C)nn(Cc3ccc(F)cc3)c2C)c2ccccc2n1` [Example 1265], 2480 nM. Take `Cc1nn(C[C@@H]2CCC(=O)N2)c(C)c1NC(=O)c1cc(C(F)(F)F)nc2ccc(Br)cc12` [Example 1266]: the IC50 was 2490 nM. Take `Cc1nn(Cc2ccc(F)cc2)c(C)c1NC(=O)c1cc(C(F)(F)F)nc2ccc(C(=O)O)cc12` [Example 1267]: the 50% inhibitory concentration (IC50) stood at 2710 nM. With `Cc1nn(Cc2ccc(F)cc2)c(C)c1NC(=O)c1cc(C(F)(F)F)nc2c(C#N)cccc12` [Example 1268] the figure was 2850 nM. In the case of `COc1cc(C(=O)Nc2c(C)nn(Cc3ccc(C(F)(F)F)cc3)c2C)c2ccccc2n1` [Example 1269] it was 2890 nM; in that of `COc1ccccc1Cn1nc(C)c(NC(=O)c2cc(C(F)(F)F)nc3cc(F)c(F)cc23)c1C` [Example 1270], 2890 nM; in that of `Cc1c(NC(=O)c2cc(C(F)(F)F)nc3ccc(Br)cc23)c(C(=O)O)nn1Cc1ccc(F)cc1` [Example 1271], 3060 nM. With `Cc1nn(Cc2ccc(F)cc2)c(C)c1NC(=O)c1c(C)c(O)nc2ccccc12` [Example 1272] the figure was 3180 nM. As for `COc1cc(C(=O)Nc2c(C)nn(Cc3c(C)noc3C)c2C)c2ccccc2n1` [Example 1273], the IC50 came out at 3370 nM. Consider `COc1ccccc1Cn1nc(C)c(NC(=O)c2cc(C(F)(F)F)nc3ccc(Br)cc23)c1C` [Example 1274], for which the IC50 came to 3410 nM. In the case of `Cc1nn(Cc2ccc(C(=O)O)cn2)c(C)c1NC(=O)c1cc(C(N)=O)nc2ccc(F)cc12` [Example 1275] it was 3500 nM; in that of `Cc1nn(Cc2ccc(F)cc2)c(C)c1NC(=O)c1cc(C(F)(F)F)nc2cc(C(F)(F)F)ccc12` [Example 1276], 3810 nM; in that of `Cc1cc(C(=O)Nc2c(C)nn(Cc3ccc(F)cc3)c2C)c2ccc(Br)cc2n1` [Example 1277], 3850 nM.

Turning to `Cc1ccc2c(C(=O)Nc3c(C)nn(Cc4ccc(F)cc4)c3C)cc(C)nc2c1` [Example 1278], the IC50 amounted to 3910 nM. With `Cc1nn(CCN2CCN(C)CC2)c(C)c1NC(=O)c1cc(C(F)(F)F)nc2ccc(Br)cc12` [Example 1279] the figure was 3930 nM. With `Cc1ccc2nc(C)cc(C(=O)Nc3c(C)nn(Cc4cc(F)ccc4F)c3C)c2c1` [Example 1281] the figure was 5190 nM. For the compound `Cc1nn(CCc2cccc(F)c2)c(C)c1NC(=O)c1cc(C(F)(F)F)nc2ccc(Br)cc12` [Example 1282], the concentration for half-maximal inhibition (IC50) was 6020 nM. Take `Cc1ccc2nc(C)cc(C(=O)Nc3c(C)nn(Cc4cccc(C#N)c4)c3C)c2c1` [Example 1283]: the IC50 was 6250 nM. With `COc1cc(C(=O)Nc2c(C)nn(Cc3cc(F)cc(F)c3)c2C)c2ccccc2n1` [Example 1284] the figure was 6250 nM; with `Cc1ccc2nc(C)cc(C(=O)Nc3c(C)nn(Cc4ncccc4C)c3C)c2c1` [Example 1285], 6250 nM; with `COc1cc(C(=O)Nc2c(C)nn(Cc3cccc(C#N)c3)c2C)c2ccccc2n1` [Example 1286], 6250 nM. Consider `Cc1ccc2nc(C)cc(C(=O)Nc3c(C)nn(Cc4ccccc4OC(F)(F)F)c3C)c2c1` [Example 1287], for which the IC50 was determined as 6250 nM. In the case of `Cc1nn(Cc2ccccc2OC(F)(F)F)c(C)c1NC(=O)c1cc(C(F)(F)F)nc2c(Cl)cc(Cl)cc12` [Example 1288] it was 6250 nM; in that of `COc1cc(C(=O)Nc2c(C)nn(Cc3ccccc3OC(F)(F)F)c2C)c2ccccc2n1` [Example 1289], 6250 nM; in that of `Cc1ccc2nc(C)cc(C(=O)Nc3c(C)nn(Cc4ccc(C(C)(C)C)cc4)c3C)c2c1` [Example 1290], 7110 nM.
